# Source: paper PMC12444507 (ACS Omega, 2025)
# Legend:
# [1] = test system: SARS-CoV-2 strain JPN/TY/WK-521 (SARS-CoV-2^WK-521, ancestral Wuhan strain); assay type: cell-based
# [2] = test system: SARS-CoV-2^WK-521 infected VeroE6 cells
# [3] = test system: SARS-CoV-2 strain JPN/TY/WK-521 (SARS-CoV-2^WK-521, ancestral Wuhan strain); settings: cited from earlier work
compound,measurement,setting,value
CC(C)(C)[C@H](NC(=O)C(F)(F)F)C(=O)N1C[C@H]2[C@@H]([C@H]1C(=O)N[C@@H](C[C@@H]1CCNC1=O)C(=O)c1nc3c(Br)c(F)ccc3s1)C2(C)C [Compound 15],lower potency than TKB272 (8),[1],approximately 3 fold
CC(C)(C)[C@H](NC(=O)C(F)(F)F)C(=O)N1C[C@H]2[C@@H]([C@H]1C(=O)N[C@@H](C[C@@H]1CCNC1=O)C(=O)c1nc3cc(F)ccc3s1)C2(C)C [TKB272 (8)],cytotoxicity in immunostaining experiments,[2],no significant cytotoxicity
same,revertant mutagenicity,bacterial mutation,no revertant mutagenicity
"CC(C)(C)[C@H](NC(=O)C(F)(F)F)C(=O)N1C[C@H]2[C@@H]([C@H]1C(=O)N[C@H](C#N)C[C@@H]1CCNC1=O)C2(C)C [nirmatrelvir (1), nirmatrelvir]",EC50,[3],770 ± 180 nM
